Experimental data taken from US20110301155A1, “INDAZOLE COMPOUNDS FOR ACTIVATING GLUCOKINASE” (priority 2007, published 2011).
Where a name gives a salt, the structure may show the parent alone.

Columns and labels:
[1] = molecular target: T1, GK (recombinant glucokinase, residues 12-465 of the human enzyme) (Homo sapiens, UniProt P35557); test: Determination of GK activity value (luminescence assay); assay type: biochemical; conditions: calculated maximal gain in GK enzyme activity at saturating compound concentration; 5 mM glucose, 5 μM ATP
T1 construct: FLAG (C-terminal tag of vector pFLAG-CTC; only the vector is printed) (C); made in house; host or cells: Escherichia coli DH10b-T1r (pFLAG-CTC plasmid)
T1 sequence (P35557 12-465): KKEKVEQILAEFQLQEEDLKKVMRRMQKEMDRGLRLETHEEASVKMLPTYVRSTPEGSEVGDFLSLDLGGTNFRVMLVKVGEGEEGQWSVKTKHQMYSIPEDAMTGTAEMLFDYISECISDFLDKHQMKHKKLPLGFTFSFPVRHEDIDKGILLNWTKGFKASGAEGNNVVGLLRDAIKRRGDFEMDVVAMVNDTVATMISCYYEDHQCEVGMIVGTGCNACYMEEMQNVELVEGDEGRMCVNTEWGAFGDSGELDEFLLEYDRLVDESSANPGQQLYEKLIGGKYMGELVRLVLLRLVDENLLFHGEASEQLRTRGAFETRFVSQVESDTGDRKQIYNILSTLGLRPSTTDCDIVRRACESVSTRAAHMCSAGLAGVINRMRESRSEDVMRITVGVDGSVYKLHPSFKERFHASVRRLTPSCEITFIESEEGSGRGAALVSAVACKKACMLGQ
Description: DNA encoding residues 12-465 of the full-length sequence of the human enzyme may be amplified by PCR and cloned into the HindIII and EcoRI sites of pFLAG-CTC (Sigma). SEQ.I.D. No. 1 corresponds to residues 12-465 of glucokinase.
The expression of recombinant glucokinase protein may be carried out by transformation and growth of DH10b-T1r E. coli cells incorporating the (pFLAG-CTC) plasmid in LB media. Protein expression can be induced in this system by the addition of IPTG to the culture medium.
Recombinant protein may be isolated from cellular extracts by passage over Sepharose Q Fast Flow resin (Pharmacia). This partially purified GK extract may then be further purified by a second passage over Poros HQ10 (Applied Biosystems). The purity of GK may be determined on denaturing SDS-PAGE gel. Purified GK may then be concentrated to a final concentration of 20.0 mg/ml. After flash freezing in liquid nitrogen, the proteins can be stored at −78° C. in a buffer containing 25 mM TRIS-HCl pH 7.6, 50 mM NaCl, and 0.5 mM TCEP.
The activation properties of compounds for GK may be determined using a black 384-well-plate format under the following reaction conditions: 25 mM Hepes pH 7.2, 25 mM NaCl, 10 mM MgCl2, 0.01% Brij35, 1 mM DTT, 5 μM ATP, 5 mM Glucose 2% DMSO. The amount of ATP consumed may be determined quantitatively by addition of equal volume of luciferase reagent (luciferase+beetle luciferin—KinaseGlo Luminescent Kinase Assay kit from Promega). The luminescence intensity may be measured by using the Analyst HT from LJL Biosystems.
The assay reaction may be initiated as follows: 4 μl of substrate mixture (12.5 μM ATP and 12.5 mM Glucose) was added to each well of the plate, followed by the addition of 2 μl of activator (2 fold serial dilutions for 11 data points for each activator) containing 10% DMSO. 4 μL of 1.25 nM GK solution obtained in Reference Example 3A may be added to initiate the reaction. The reaction mixture may then be incubated at room temperature for 60 min, and quenched and developed by addition of 10 μL of luciferase reagent. Luminescence intensities of the resulting reaction mixtures may be measured after a 10 min incubation at room temperature. The luminescence intensity may be measured by using the Analyst HT from LJL Biosystems.
% ACTmax values may be calculated by non-linear curve fitting of the compound concentrations and luminescence intensities to a standard inhibition/activation equation. % ACTmax represents the calculated maximal gain in GK enzyme activity at a saturating concentration of the compound. % ACTmax values for select compounds of the present invention are given in Table 2.

[2] = molecular target: T2, GST-hLGK1 (human liver type GK) (Homo sapiens, UniProt P35557); test: Determination of GK activity value (fluorescence assay); assay type: biochemical; conditions: test compound 10 μmol/L, 5 mmol/L D-glucose, reaction rate as percentage of control without compound
T2 construct: made in house; host or cells: Escherichia coli BL21 (pGEX6P-2/hLGK1)
T2 sequence (P35557 1-464 isoform P35557-3): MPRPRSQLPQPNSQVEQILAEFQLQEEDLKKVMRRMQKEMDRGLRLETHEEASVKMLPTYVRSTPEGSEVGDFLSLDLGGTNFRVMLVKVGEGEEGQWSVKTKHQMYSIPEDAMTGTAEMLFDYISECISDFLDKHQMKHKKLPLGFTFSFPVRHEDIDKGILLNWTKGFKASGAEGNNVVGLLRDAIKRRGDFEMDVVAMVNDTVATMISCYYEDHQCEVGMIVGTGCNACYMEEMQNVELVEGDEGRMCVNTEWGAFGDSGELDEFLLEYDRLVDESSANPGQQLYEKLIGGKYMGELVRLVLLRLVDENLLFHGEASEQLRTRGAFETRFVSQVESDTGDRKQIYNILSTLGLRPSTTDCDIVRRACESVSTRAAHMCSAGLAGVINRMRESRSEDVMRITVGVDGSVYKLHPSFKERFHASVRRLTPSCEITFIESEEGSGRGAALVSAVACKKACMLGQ
Procedure: Plasmid DNA to be used for the expression of a protein (GST-hLGK1) containing GST (Glutathione S-transferase) added to the amino terminal of human liver type GK in Escherichia coli was prepared as shown below.
BL21 strain (Stratagene) transformed with pGEX6P-2/hLGK1 obtained in Reference Example 1A was cultured with shaking at 37° C. for 14 hr in a 200 ml Erlenmeyer flask containing 50 ml of 100 μg/ml ampicillin-containing LB medium. The culture medium (25 ml) was diluted with 225 ml of 100 μg/ml ampicillin-containing LB medium, and further cultured with shaking at 37° C. for 1 hr in a 1L Erlenmeyer flask. After culture, the Erlenmeyer flask was cooled on ice, 125 μL of 100 mM isopropyl-thio-β-D-galactopyranoside (IPTG) was added (final concentration 50 μM), and cultured at 17° C. for 20 hr. The culture medium was centrifuged, and the obtained fungus was disrupted by ultrasonication. The object protein (GST-hLGK1) was purified from the supernatant using Glutathione Sepharose 4B (Amersham Biosciences. K.K.).
GK enzyme reactions were performed in 50 mmol/L HEPES pH 7.4, 200 mmol/L KCl, 5 mmol/L MgCl2, 2 mmol/L DTT, containing 50 μmol/L 2′-(or-3′)-O-(N-methylanthraniloyl)adenosine 5′-triphosphate (Mant-ATP) (Jena Bioscience GmbH), 5 mmol/L D-glucose, 5% DMSO and 6 μg/mL GST-hLGK1 obtained in Reference Example 2A in a total volume 50 μL. The reactions were performed in 384 well black plates (Nalge Nunc International K.K.). Prior to the reaction, the enzyme and test compound were incubated for 10 min at 37° C., and 25 mM D-glucose solution (10 μL) was added to start the reaction. The final concentration of the test compound is 10 μmol/L. After the incubation for 60 min at 37° C., the reaction was quenched by adding 25 μL of a quenching solution (containing 200 mM HEPES (pH 7.4), 20 mM MgCl2, 200 mM EDTA, 0.03% Triton-X 100, 0.3% Coating 3 reagent (Caliper Life Sciences, Inc.)).
Mant-ATP (substrate, 2′-(or-3′)—O—(N-methylanthraniloyl)adenosine 5′-triphosphate) and Mant-ADP (reaction resultant product) were separated from each well after the reaction by a microchip type capillary electrophoresis apparatus 250 HTS (Caliper Life Sciences, Inc.). The reaction rate [(reaction resultant product peak height)/(reaction resultant product peak height+substrate peak height)×100(%)] was calculated from the ratio of the substrate peak height and reaction resultant product peak height obtained by fluorescence detection (excitation wavelength 355 nm, measurement wavelength 460 nm) and used as the index of GK activity.
As a control group, the reaction rate was calculated in the same manner as above without the test compounds.
The percentage obtained by dividing the reaction rate of the well added with the test compound (test compound addition group) by the reaction rate of the control group was taken as the GK activity value (Emax) of the test compound.

| Structure (SMILES) | % ACTmax [1] | melting point | Emax at 10 µM [2] |
| --- | --- | --- | --- |
| CS(=O)(=O)c1ccc(Oc2cc(-c3ncccc3Cl)cc3c(Nc4ccn(CC(O)CO)n4)n[nH]c23)cc1 (stereo not shown) [Example 131, 3-(3-(5-(3-chloropyridin-2-yl)-7-(4-(methylsulfonyl)phenoxy)-1H-indazol-3-ylamino)-1H-pyrazol-1-yl)propane-1,2-diol] | 147.8% | – | – |
| Cn1ccnc1Sc1ccc2[nH]nc(Nc3nccs3)c2c1 [Example 109, 5-[(1-methyl-1H-imidazol-2-yl)thio]-N-1,3-thiazol-2-yl-1H-indazole-3-amine] | – | > 250 °C | 218% |
| Cn1ccc(Nc2n[nH]c3c(Oc4ccc(S(C)(=O)=O)cc4)cc(-c4ncccc4Cl)cc23)n1 [Example 105, 5-(3-chloropyridin-2-yl)-N-(1-methyl-1H-pyrazol-3-yl)-7-[4-(methylsulfonyl)phenoxy]-1H-indazole-3-amine] | – | – | 140% |
| CC(C)Cc1cc(OCCc2ccsc2)c2[nH]nc(Nc3nccs3)c2c1 [Example 72, 5-isobutyl-N-1,3-thiazol-2-yl-7-[2-(3-thienyl)ethoxy]-1H-indazole-3-amine] | – | 150 to 151 °C | 194% |
| Cn1ccc(Nc2n[nH]c3ccc(-c4ncccc4Cl)cc23)n1 [Example 63, 5-(3-chloropyridin-2-yl)-N-(1-methyl-1H-pyrazol-3-yl)-1H-indazole-3-amine] | – | 190 to 191 °C | 175% |
| CCn1nc(Nc2nccs2)c2cc(-c3ncccc3Cl)ccc21 [Example 30, 5-(3-chloropyridin-2-yl)-1-ethyl-N-1,3-thiazol-2-yl-1H-indazole-3-amine] | – | – | 129% |
| COC[C@H](C)Oc1cc(OCCc2ccccn2)c2[nH]nc(Nc3nccs3)c2c1 [Example 108, 5-[(1S)-2-methoxy-1-methylethoxy]-7-(2-pyridin-2-ylethoxy)-N-1,3-thiazol-2-yl-1H-indazole-3-amine dihydrochloride] | – | – | 199% |
| Clc1cccnc1-c1cc(OCCc2ccccn2)c2[nH]nc(Nc3nccs3)c2c1 [Example 85, 5-(3-chloropyridin-2-yl)-7-(2-pyridin-2-ylethoxy)-N-1,3-thiazol-2-yl-1H-indazole-3-amine] | – | 185 to 187 °C | 231% |
| O=S(=O)(c1ccc2[nH]nc(Nc3nccs3)c2c1)N1CCCC1 [Example 20, 5-(pyrrolidin-1-ylsulfonyl)-N-1,3-thiazol-2-yl-1H-indazole-3-amine] | – | – | 156% |
| CC(C)Cc1cc(OCC(=O)N(C)C)c2[nH]nc(Nc3nccs3)c2c1 [Example 73, 2-{[5-isobutyl-3-(1,3-thiazol-2-ylamino)-1H-indazole-7-yl]oxy}-N,N-dimethylacetamide] | – | 96 to 98 °C | 111% |
| Cn1ccc(Nc2n[nH]c3c(OCCc4ccccn4)cc(-c4ncccc4Cl)cc23)n1 [Example 100, 5-(3-chloropyridin-2-yl)-N-(1-methyl-1H-pyrazol-3-yl)-7-(2-pyridin-2-ylethoxy)-1H-indazole-3-amine] | – | 89 to 91 °C | 200% |
| COC[C@H](C)Oc1cc(OCCc2ccccn2)c2[nH]nc(Nc3nccs3)c2c1 (as salt: hydrochloride) [Example 108, 5-[(1S)-2-methoxy-1-methylethoxy]-7-(2-pyridin-2-ylethoxy)-N-1,3-thiazol-2-yl-1H-indazole-3-amine dihydrochloride] | – | 150 to 153 °C | – |
| CCCc1cc(-c2cc3ccccc3s2)c2[nH]nc(Nc3nccs3)c2c1 [Example 28, 7-(1-benzothien-2-yl)-5-propyl-N-1,3-thiazol-2-yl-1H-indazole-3-amine] | – | – | 231% |
| CCNC(=O)Nc1n[nH]c2ccc(-c3ncccc3Cl)cc12 [Example 101, N-[5-(3-chloropyridin-2-yl)-1H-indazol-3-yl]-N′-ethylurea] | – | 178 to 180 °C | 202% |
| Clc1cccnc1-c1ccc2[nH]nc(Nc3ncc(CN4CCOCC4)s3)c2c1 [Example 34, 5-(3-chloropyridin-2-yl)-N-[5-(morpholin-4-ylmethyl)-1,3-thiazol-2-yl]-1H-indazole-3-amine] | – | 217 °C | 186% |
| CC(C)S(=O)(=O)c1cc(OCCc2ccccn2)c2[nH]nc(Nc3nccs3)c2c1 [Example 117, 5-(isopropylsulfonyl)-7-(2-pyridin-2-ylethoxy)-N-1,3-thiazol-2-yl-1H-indazole-3-amine] | – | 190 to 191 °C | 211% |
